Patent US5747448A, “Derivatives of cyclodepsipeptide PF 1022” (Meiji Seika Kaisha, Ltd., priority 1993, dated 1998)
Where two headings read alike, the source gives them in different places.

Tests used:
[1] = amide bond, 24-membered ring, THF/DMF
fowl roundworms = assay: Fowl Roundworm Eliminating Test; assay type: in vivo; details: infected fowls, worms counted to day 7
Description: Test 1 Fowl Roundworm Eliminating Test Fowls (three fowls per group), which had been artificially infected with fowl roundworms and whose infection therewith had been confirmed by scatoscopy, were used as experimental animals. Upon administration of each test substance, the test substance weighed in a dose (mg) accurately calculated on the basis of the body weight (kg) of each fowl was suspended in carboxymethylcellulose-containing water, and the resulting suspension was administered orally as a single dose unit using a stomach tube. After the administration, the worms eliminated from the fowls were counted daily. Seven days after the administration, the fowl was sacrificed and autopsied and the worms remaining in its intestinal tract were counted. The percent elimination was calculated in accordance with the following calculation equation: [formula] Each test substance is indicated by the corresponding substance code name shown above in Table 1.

[2] = test system: Nippostrongylus brasillensis; assay: Anthelmintic effects on a rat intestinal nematode (N. brasillensis-infected rats); assay type: in vivo; details: male Wistar rats; for Number of remaining worms (average value ± SD): 10 mg/kg p.o. 7 days after inoculation, autopsy 10 days after inoculation; for % Effectiveness: 10 mg/kg p.o., compared with infected control group
Description: Anthelmintic effects of certain PF1022 derivatives on a rat intestinal nematode were tested in accordance with the following method.
Sixteen male Wistar rats were divided into eight groups (two rats per group), and about 2,000 larval worms of Nippostrongylus brasillensis were hypodermically inoculated per rat. Seven days after the inoculation, PF1022, PF1022E, PF1022-002, PF1022-003, PF1022-209, PF1022-218 and PF1022-219 were, as test substances, forcedly administered p.o. to the rats in the groups, respectively, in an amount of 10 mg/kg per rat. Upon administration, each test substance (8 mg) was dissolved in 0.2 ml of dimethyl sulfoxide and then, the resultant solution was diluted with distilled water to give a 2 ml suspension. Ten days after the inoculation,the rats were each subjected to autopsy and imaginal worms parasitic on the small intestines were counted.
As the test results, the average of remaining worms in each of the eight groups and the percent effectiveness of the test substance in each group as compared with that of the infected control group are shown in Table 4.

## CC(C)C[C@H]1C(=O)O[C@H](C(C)C)C(=O)N(C)[C@@H](CC(C)C)C(=O)O[C@H](Cc2ccccc2)C(=O)N(C)[C@@H](CC(C)C)C(=O)O[C@H](C(C)C)C(=O)N(C)[C@@H](CC(C)C)C(=O)O[C@H](Cc2ccccc2)C(=O)N1C [cyclo(L-MeLeu-D-VALA-L-MeLeu-D-PhLac)2]
[1]; from H-MeLeu-dVALA-MeLeu-dPhLac-MeLeu-dVALA-MeLeu-dPhLac-OH, EDCI.HCl/HOBt/NMM/LiCl/KCl/NaCl/CsCl, 0.9 mM, 25.0 °C
  ring closure, isolated yield: 56.5%

## CC(C)C[C@H]1C(=O)O[C@H](Cc2ccc(OCc3ccccc3)cc2)C(=O)N(C)[C@@H](CC(C)C)C(=O)O[C@H](C)C(=O)N(C)[C@@H](CC(C)C)C(=O)O[C@H](Cc2ccc(OCc3ccccc3)cc2)C(=O)N(C)[C@@H](CC(C)C)C(=O)O[C@H](C)C(=O)N1C [cyclo-(L-MeLeu-D-Lac-L-MeLeu-D-TYRA(OBn))2]
[1]; from H-MeLeu-dLac-MeLeu-dTYRA(OBn)-MeLeu-dLac-MeLeu-dTYRA(OBn)-OH, EDCI.HCl/HOBt/NMM/LiCl/NaCl/KCl/CsCl, 0.66 mM, 25.0 °C
  ring closure, isolated yield: 60.5%

## cyclo-(L-MeLeu-D-PhLac-L-MeLeu-D-Lac-L-MeLeu-D-TYRA(OBn)-L-MeLeu-D-Lac) [PF1022-022]
Fowl roundworms; single oral dose 1.0 mg/kg
  % Elimination: 40%
Fowl roundworms; single oral dose 2.0 mg/kg
  % Elimination: 93%
Fowl roundworms; single oral dose 5 mg/kg
  % Elimination: 84%

## cyclo-(L-MeLeu-D-PhLac-L-MeLeu-D-Lac-L-MeLeu-D-TYRA(O-All)-L-MeLeu-D-Lac) [PF1022-020]
Fowl roundworms; single oral dose 1.0 mg/kg
  % Elimination: 54%
Fowl roundworms; single oral dose 2.0 mg/kg
  % Elimination: 100%

## COc1ccc(C[C@H]2OC(=O)[C@H](CC(C)C)N(C)C(=O)[C@@H](C)OC(=O)[C@H](CC(C)C)N(C)C(=O)[C@@H](Cc3ccccc3)OC(=O)[C@H](CC(C)C)N(C)C(=O)[C@@H](C)OC(=O)[C@H](CC(C)C)N(C)C2=O)cc1 [PF1022-005, cyclo-(-L-MeLeu-D-Lac-L-MeLeu-D-PhLac-L-MeLeu-D-Lac-L-MeLeu-D-TYRA(OMe)]
Fowl roundworms; single oral dose 0.5 mg/kg
  % Elimination: 73%
Fowl roundworms; single oral dose 1.0 mg/kg
  % Elimination: 89%
Fowl roundworms; single oral dose 2.0 mg/kg
  % Elimination: 100%

## CC(C)C[C@H]1C(=O)O[C@H](C)C(=O)N(C)[C@@H](CC(C)C)C(=O)O[C@H](C)C(=O)N(C)[C@@H](CC(C)C)C(=O)O[C@H](C)C(=O)N(C)[C@@H](CC(C)C)C(=O)O[C@H](C)C(=O)N1C [cyclo-(L-MeLeu-D-Lac-)4]
[1]; from H-MeLeu-dLac-MeLeu-dLac-MeLeu-dLac-MeLeu-dLac-OH, EDCI.HCl/HOBt/NMM/KCl/CsCl, 1.0 mM, 3 steps
  ring closure, isolated yield: 86%

## cyclo-(L-MeLeu-D-VALA-L-MeLeu-D-Lac)2 [PF1022-209]
[2]
  Number of remaining worms (average value ± SD): 827 ± 388.9
[2]; 10 mg/kg
  % Effectiveness: 59.3%
[2]; listed as PF 1022-209, 10 mg/kg
  % Effectiveness: 59.8%

## CC(C)C[C@H]1C(=O)O[C@H](C(C)C)C(=O)N(C)[C@@H](CC(C)C)C(=O)O[C@H](C)C(=O)N(C)[C@@H](CC(C)C)C(=O)O[C@H](C(C)C)C(=O)N(C)[C@@H](CC(C)C)C(=O)O[C@H](C)C(=O)N1C [Cyclo-(L-MeLeu-D-VALA-L-MeLeu-D-Lac)2]
[1]; from H-MeLeu-dVALA-MeLeu-dLac-MeLeu-dVALA-MeLeu-dLac-OH, EDCI.HCl/HOBt/NMM/LiCl/NaCl/KCl/CsCl, 0.88 mM
  ring closure, isolated yield: 92%

## CC(C)C[C@H]1C(=O)O[C@H](Cc2ccc(O)cc2)C(=O)N(C)[C@@H](CC(C)C)C(=O)O[C@H](C)C(=O)N(C)[C@@H](CC(C)C)C(=O)O[C@H](Cc2ccccc2)C(=O)N(C)[C@@H](CC(C)C)C(=O)O[C@H](C)C(=O)N1C [PF1022 E, cyclo-(-L-Meleu-D-Lac-L-MeLeu-D-TYRA-L-MeLeu-D-Lac-L-MeLeu-D-PhLac)]
[2]
  Number of remaining worms (average value ± SD): 2175 ± 134.4
  % Effectiveness: 0%
Fowl roundworms; single oral dose 0.5 mg/kg
  % Elimination: 70%

## CCCC[C@H]1OC(=O)[C@H](CC(C)C)N(C)C(=O)[C@@H](Cc2ccccc2)OC(=O)[C@H](CC(C)C)N(C)C(=O)[C@@H](CCCC)OC(=O)[C@H](CC(C)C)N(C)C(=O)[C@@H](Cc2ccccc2)OC(=O)[C@H](CC(C)C)N(C)C1=O [Cyclo-(L-MeLeu-D-norLEUA-L-MeLeu-D-PhLac)2]
[1]; from H-MeLeu-dnorLEUA-MeLeu-dPhLac-MeLeu-dnorLEUA-MeLeu-dPhLac-OH, EDCI.HCl/HOBt/NMM/LiCl/NaCl/KCl/CsCl, 0.82 mM, 3 steps
  ring closure, isolated yield: 35.8%

## CC[C@@H](C)[C@H]1OC(=O)[C@H](CC(C)C)N(C)C(=O)[C@@H](Cc2ccccc2)OC(=O)[C@H](CC(C)C)N(C)C(=O)[C@@H]([C@H](C)CC)OC(=O)[C@H](CC(C)C)N(C)C(=O)[C@@H](Cc2ccccc2)OC(=O)[C@H](CC(C)C)N(C)C1=O [Cyclo-(L-MeLeu-D-isoLEUA-L-MeLeu-D-PhLac)2]
[1]; from H-MeLeu-disoLEUA-MeLeu-dPhLac-MeLeu-disoLEUA-MeLeu-dPhLac-OH, EDCI.HCl/HOBt/NMM/LiCl/NaCl/KCl/CsCl, 0.87 mM, 3 steps
  ring closure, isolated yield: 29%

## CC(C)C[C@H]1C(=O)O[C@H](Cc2ccc(O)cc2)C(=O)N(C)[C@@H](CC(C)C)C(=O)O[C@H](C)C(=O)N(C)[C@@H](CC(C)C)C(=O)O[C@H](Cc2ccccc2)C(=O)N(C)[C@@H](CC(C)C)C(=O)O[C@H](C)C(=O)N1C [H-MeLeu-dLac-MeLeu-dTYRA-MeLeu-dLac-MeLeu-dPhLac-OH]
[1]; from H-MeLeu-dLac-MeLeu-dTYRA-MeLeu-dLac-MeLeu-dPhLac-OH, EDCI.HCl/HOBt/NMM/LiCl/KCl/NaCl/CsCl, 0.89 mM
  ring closure, isolated yield: 33%

## CC(C)C[C@@H]1NC(=O)[C@@H](C)OC(=O)[C@H](CC(C)C)N(C)C(=O)[C@@H](Cc2ccccc2)OC(=O)[C@H](CC(C)C)NC(=O)[C@@H](C)OC(=O)[C@H](CC(C)C)N(C)C(=O)[C@@H](Cc2ccccc2)OC1=O [Cyclo-(L-MeLeu-D-Lac-L-Leu-D-PhLac)2]
[1]; from H-MeLeu-dLac-Leu-dPhLac-MeLeu-dLac-Leu-dPhLac-OH, EDCI.HCl/HOBt/NMM, LiCl/KCl/NaCl/CsCl, 0.96 mM, 25.0 °C, 3 steps
  ring closure, isolated yield: 55.8%

## CCCCCC[C@H]1OC(=O)[C@H](CC(C)C)N(C)C(=O)[C@@H](C)OC(=O)[C@H](CC(C)C)N(C)C(=O)[C@@H](Cc2ccccc2)OC(=O)[C@H](CC(C)C)N(C)C(=O)[C@@H](C)OC(=O)[C@H](CC(C)C)N(C)C1=O
[1]; from H-MeLeu-dOctA-MeLeu-dLac-MeLeu-dPhLac-MeLeu-dLac-OH, EDCI.HCl/HOBt/NMM/LiCl/NaCl/KCl/CsCl, 0.95 mM
  ring closure, isolated yield: 24.7%

## CC(C)CC1C(=O)OC(C)C(=O)N(C)C(CC(C)C)C(=O)OC(C)C(=O)N(C)C(CC(C)C)C(=O)OC(C)C(=O)N(C)C(CC(C)C)C(=O)OC(C)C(=O)N1C [PF1022-002, cyclo-(L-MeLeu-D-Lac-)4]
[2]
  Number of remaining worms (average value ± SD): 1976.5
  % Effectiveness: 2.7%

## CCOc1ccc(C[C@H]2OC(=O)[C@H](CC(C)C)N(C)C(=O)[C@@H](C)OC(=O)[C@H](CC(C)C)N(C)C(=O)[C@@H](Cc3ccccc3)OC(=O)[C@H](CC(C)C)N(C)C(=O)[C@@H](C)OC(=O)[C@H](CC(C)C)N(C)C2=O)cc1 [PF1022-016, cyclo-(L-MeLeu-D-PhLac-L-MeLeu-D-Lac-L-MeLeu-D-TYRA(OEt)-L-MeLeu-D-Lac)]
Fowl roundworms; single oral dose 0.5 mg/kg
  % Elimination: 55%
Fowl roundworms; single oral dose 1.0 mg/kg
  % Elimination: 61%
Fowl roundworms; single oral dose 2.0 mg/kg
  % Elimination: 100%

## CC(C)CC1NC(=O)C(Cc2ccccc2)OC(=O)C(CC(C)C)N(C)C(=O)C(C)OC(=O)C(CC(C)C)NC(=O)C(Cc2ccccc2)OC(=O)C(CC(C)C)N(C)C(=O)C(C)OC1=O [PF1022-218, cyclo-(L-MeLeu-D-PhLac-L-Leu-D-Lac)2]
[2]
  Number of remaining worms (average value ± SD): 2400 ± 362.0
  % Effectiveness: 0%

## CC(C)CC1C(=O)OC(CC2CCCCC2)C(=O)N(C)C(CC(C)C)C(=O)OC(C)C(=O)N(C)C(CC(C)C)C(=O)OC(CC2CCCCC2)C(=O)N(C)C(CC(C)C)C(=O)OC(C)C(=O)N1C (stereo not shown) [PF1022-ADH, dodecahydro-PF1022]
Fowl roundworms; single oral dose 5 mg/kg
  % Elimination: 30%

## CC(C)CC1C(=O)OC(CC2CCCCC2)C(=O)N(C)C(CC(C)C)C(=O)OC(C)C(=O)N(C)C(CC(C)C)C(=O)OC(Cc2ccccc2)C(=O)N(C)C(CC(C)C)C(=O)OC(C)C(=O)N1C (stereo not shown) [PF1022-AHH, hexahydro-PF1022]
Fowl roundworms; single oral dose 5 mg/kg
  % Elimination: 62%

## CCCCOc1ccc(C[C@H]2OC(=O)[C@H](CC(C)C)N(C)C(=O)[C@@H](C)OC(=O)[C@H](CC(C)C)N(C)C(=O)[C@@H](Cc3ccccc3)OC(=O)[C@H](CC(C)C)N(C)C(=O)[C@@H](C)OC(=O)[C@H](CC(C)C)N(C)C2=O)cc1 [PF1022-021, cyclo-(L-MeLeu-D-PhLac-L-MeLeu-D-Lac-L-MeLeu-D-TYRA(O-n-Bu)-L-MeLeu-D-Lac)]
Fowl roundworms; single oral dose 1.0 mg/kg
  % Elimination: 41%
Fowl roundworms; single oral dose 2.0 mg/kg
  % Elimination: 90%
